Data reported in paper PMC9274761, “Effects of Structurally Different HDAC Inhibitors against Trypanosoma cruzi, Leishmania, and Schistosoma mansoni” (ACS Infectious Diseases, 2022).
Where “and” joins values, the source holds several entries; their conditions need not be identical. Equal values may be shown once.

Assays:
[1] = tested on: L. amazonensis amastigotes in primary mouse macrophages; conditions: 10 μM, 3 days, toxic = toxic for macrophages
[2] = target: HDAC3 (Homo sapiens, UniProt O15379); test: HDAC3 protease-coupled fluorescence (AMC) inhibition assay; assay type: biochemical; conditions: hr enzyme, 10-dose, 3-fold dilution from 50 μM (3: from 300 μM); read-out: IC50 against HDAC3
Text: (§1) The new hydroxamates 2 and 6 were screened and profiled via a protease-coupled assay in which the quantification of HDAC enzyme activity is based on the formation of a free fluorescent group, the 7-amino-4-methyl coumarin (AMC).[42] […] After deacetylation by HDACs, the de(trifluoro)acetylated AMC–peptides were sensitive toward lysine peptidase and free fluorogenic AMC was generated and quantified.[42]
(§2) To gain insights into its inhibition profile for human HDACs, we tested 3 against hrHDACs 1–6 and 8 following the above procedure (Table 1).
(§3) Individual IC50 values for each HDAC isozyme were measured with the homogeneous fluorescence release HDAC assay.[42]

[3] = target: HDAC10 (Homo sapiens, UniProt Q969S8); test: HDAC10 protease-coupled fluorescence (AMC) inhibition assay; assay type: biochemical; conditions: hr enzyme; read-out: IC50 against HDAC10
HDAC10, sequence (Q969S8 whole entry): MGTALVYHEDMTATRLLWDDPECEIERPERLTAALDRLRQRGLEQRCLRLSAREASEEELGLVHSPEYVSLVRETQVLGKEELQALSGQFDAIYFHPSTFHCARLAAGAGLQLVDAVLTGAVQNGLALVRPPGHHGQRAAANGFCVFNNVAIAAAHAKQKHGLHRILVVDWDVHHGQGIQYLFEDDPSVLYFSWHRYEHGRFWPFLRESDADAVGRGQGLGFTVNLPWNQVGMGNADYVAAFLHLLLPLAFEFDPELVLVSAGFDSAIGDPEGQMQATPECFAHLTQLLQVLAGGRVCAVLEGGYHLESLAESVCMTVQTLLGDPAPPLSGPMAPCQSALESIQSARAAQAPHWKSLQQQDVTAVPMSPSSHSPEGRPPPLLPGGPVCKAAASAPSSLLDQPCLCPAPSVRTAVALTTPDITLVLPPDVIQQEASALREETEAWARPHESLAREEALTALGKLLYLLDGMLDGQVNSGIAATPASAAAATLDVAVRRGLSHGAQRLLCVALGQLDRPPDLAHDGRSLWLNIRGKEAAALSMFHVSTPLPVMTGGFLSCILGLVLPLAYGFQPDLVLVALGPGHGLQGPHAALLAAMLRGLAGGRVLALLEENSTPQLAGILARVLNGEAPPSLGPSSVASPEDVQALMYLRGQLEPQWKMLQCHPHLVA
Description: as §1, §3

[4] = target: HDAC9 (Homo sapiens, UniProt Q9UKV0); test: HDAC9 protease-coupled fluorescence (AMC) inhibition assay; assay type: biochemical; conditions: hr enzyme, class IIa substrate; read-out: IC50 against HDAC9
HDAC9, sequence (Q9UKV0 whole entry): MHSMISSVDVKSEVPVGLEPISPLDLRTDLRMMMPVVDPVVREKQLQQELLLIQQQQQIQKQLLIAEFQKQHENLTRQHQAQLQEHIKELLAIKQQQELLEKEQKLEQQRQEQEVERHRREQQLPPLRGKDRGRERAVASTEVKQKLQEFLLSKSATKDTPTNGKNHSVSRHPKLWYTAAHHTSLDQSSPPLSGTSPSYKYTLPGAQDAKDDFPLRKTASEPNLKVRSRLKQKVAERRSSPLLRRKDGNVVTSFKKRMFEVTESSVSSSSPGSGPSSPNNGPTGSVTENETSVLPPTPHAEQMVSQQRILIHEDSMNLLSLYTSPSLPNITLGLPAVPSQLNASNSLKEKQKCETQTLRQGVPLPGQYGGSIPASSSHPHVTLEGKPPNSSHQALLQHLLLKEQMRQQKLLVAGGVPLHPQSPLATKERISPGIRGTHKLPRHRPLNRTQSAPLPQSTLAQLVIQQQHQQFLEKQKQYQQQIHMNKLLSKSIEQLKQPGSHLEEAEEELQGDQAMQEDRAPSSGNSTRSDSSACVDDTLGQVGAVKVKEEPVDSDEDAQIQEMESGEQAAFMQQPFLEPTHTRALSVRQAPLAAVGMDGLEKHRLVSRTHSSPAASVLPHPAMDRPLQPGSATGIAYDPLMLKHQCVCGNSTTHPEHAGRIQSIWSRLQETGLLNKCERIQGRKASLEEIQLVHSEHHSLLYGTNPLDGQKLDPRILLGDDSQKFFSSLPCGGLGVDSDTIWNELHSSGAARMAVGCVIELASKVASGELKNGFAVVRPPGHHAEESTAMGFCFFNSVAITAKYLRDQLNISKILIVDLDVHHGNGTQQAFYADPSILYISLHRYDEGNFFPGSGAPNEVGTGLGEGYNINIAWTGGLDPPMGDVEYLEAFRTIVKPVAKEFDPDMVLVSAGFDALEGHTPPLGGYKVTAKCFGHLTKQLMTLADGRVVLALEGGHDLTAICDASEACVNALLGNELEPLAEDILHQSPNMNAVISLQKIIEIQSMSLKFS
Description: as §1, §3

[5] = target: T1, HDAC6 (Homo sapiens, UniProt Q9UBN7); test: HDAC6 protease-coupled fluorescence (AMC) inhibition assay; assay type: biochemical; conditions: hr enzyme, 10-dose, 3-fold dilution from 50 μM (3: from 300 μM); read-out: IC50 against HDAC6
T1 sequence (Q9UBN7 1-1215): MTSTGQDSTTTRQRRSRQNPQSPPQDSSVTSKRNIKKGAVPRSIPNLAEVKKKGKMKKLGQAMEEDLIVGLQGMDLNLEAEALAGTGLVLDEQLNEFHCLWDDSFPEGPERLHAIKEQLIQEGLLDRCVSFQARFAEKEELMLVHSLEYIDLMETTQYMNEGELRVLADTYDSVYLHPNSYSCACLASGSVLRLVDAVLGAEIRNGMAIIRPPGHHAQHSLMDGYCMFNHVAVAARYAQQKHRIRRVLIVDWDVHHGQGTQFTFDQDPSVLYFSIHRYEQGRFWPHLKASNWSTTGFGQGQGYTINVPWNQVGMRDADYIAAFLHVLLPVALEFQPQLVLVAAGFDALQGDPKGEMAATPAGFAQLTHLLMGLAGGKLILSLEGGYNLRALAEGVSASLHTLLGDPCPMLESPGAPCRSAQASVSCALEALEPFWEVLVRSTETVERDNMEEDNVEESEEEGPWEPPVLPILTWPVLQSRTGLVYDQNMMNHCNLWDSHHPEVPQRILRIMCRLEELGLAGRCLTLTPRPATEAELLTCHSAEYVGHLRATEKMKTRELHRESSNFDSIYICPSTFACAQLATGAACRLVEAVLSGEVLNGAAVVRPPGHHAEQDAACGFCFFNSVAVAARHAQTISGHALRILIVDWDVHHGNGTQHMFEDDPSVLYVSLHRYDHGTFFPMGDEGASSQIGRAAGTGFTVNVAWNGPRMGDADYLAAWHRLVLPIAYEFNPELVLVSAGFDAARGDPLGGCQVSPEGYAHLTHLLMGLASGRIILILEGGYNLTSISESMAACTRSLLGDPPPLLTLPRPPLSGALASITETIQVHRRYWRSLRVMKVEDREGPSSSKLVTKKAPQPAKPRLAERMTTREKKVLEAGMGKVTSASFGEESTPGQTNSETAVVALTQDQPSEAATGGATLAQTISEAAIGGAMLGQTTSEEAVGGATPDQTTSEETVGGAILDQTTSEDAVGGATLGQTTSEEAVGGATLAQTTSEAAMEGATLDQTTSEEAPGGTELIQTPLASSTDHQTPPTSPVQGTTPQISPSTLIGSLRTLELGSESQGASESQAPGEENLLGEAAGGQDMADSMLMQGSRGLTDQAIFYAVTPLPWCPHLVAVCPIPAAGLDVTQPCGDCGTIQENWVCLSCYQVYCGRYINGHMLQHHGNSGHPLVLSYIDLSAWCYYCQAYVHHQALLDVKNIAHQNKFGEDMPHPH
Text: as §1, §2, §3

[6] = tested on: L. donovani axenic amastigotes; test: Resazurin reduction assay, L. donovani axenic amastigotes; assay type: cell-based; conditions: Leishmania donovani, read-out: percentage of inhibition, L. donovani axenic amastigotes
[7] = tested on: newly transformed schistosomula (NTS); test: Phenotypic screening on newly transformed schistosomula (NTS); assay type: cell-based, Schistosoma mansoni; conditions: for IC50: Schistosoma mansoni, 72 h, read-out: IC50, viability of NTS
[8] = tested on: L. donovani promastigotes; test: Resazurin reduction assay, L. donovani promastigotes; assay type: cell-based; conditions: Leishmania donovani, read-out: percentage of inhibition, L. donovani promastigotes
[9] = target: HDAC5 (Homo sapiens, UniProt Q9UQL6); test: HDAC5 protease-coupled fluorescence (AMC) inhibition assay; assay type: biochemical; conditions: for IC50: hr enzyme, class IIa substrate Boc-Lys(trifluoroacetyl)-AMC, read-out: IC50 against HDAC5
HDAC5, sequence (Q9UQL6 whole entry): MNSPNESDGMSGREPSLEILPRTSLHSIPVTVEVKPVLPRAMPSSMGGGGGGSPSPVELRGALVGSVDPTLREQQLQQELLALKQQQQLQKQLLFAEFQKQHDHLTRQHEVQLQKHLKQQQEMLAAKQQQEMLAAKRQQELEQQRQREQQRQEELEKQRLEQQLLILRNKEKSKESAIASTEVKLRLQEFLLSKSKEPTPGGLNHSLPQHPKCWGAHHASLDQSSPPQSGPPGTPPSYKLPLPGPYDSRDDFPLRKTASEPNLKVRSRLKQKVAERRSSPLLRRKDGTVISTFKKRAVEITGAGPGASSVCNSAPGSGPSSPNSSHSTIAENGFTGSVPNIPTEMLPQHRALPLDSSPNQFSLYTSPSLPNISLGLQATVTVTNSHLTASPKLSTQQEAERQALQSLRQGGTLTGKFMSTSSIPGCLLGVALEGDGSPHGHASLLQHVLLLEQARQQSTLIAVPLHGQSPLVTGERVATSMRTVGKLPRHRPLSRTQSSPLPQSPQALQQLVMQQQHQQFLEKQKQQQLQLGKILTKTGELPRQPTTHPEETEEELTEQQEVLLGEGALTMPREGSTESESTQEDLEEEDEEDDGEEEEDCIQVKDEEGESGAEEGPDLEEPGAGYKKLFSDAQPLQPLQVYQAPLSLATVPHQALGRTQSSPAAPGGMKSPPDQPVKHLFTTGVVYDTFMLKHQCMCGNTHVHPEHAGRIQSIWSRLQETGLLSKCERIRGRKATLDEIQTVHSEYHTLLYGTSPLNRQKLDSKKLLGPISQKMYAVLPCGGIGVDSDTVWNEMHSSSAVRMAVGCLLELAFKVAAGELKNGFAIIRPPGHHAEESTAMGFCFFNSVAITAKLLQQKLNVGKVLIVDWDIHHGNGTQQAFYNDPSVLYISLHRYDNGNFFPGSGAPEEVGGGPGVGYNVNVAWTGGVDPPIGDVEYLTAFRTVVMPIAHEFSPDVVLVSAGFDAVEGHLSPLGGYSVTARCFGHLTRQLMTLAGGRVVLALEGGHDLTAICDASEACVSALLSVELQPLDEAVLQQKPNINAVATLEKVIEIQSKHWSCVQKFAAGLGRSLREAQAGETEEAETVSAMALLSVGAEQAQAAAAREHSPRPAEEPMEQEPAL
Text: as §1, §2, §3

[10] = target: HDAC1 (Homo sapiens, UniProt Q13547); test: HDAC1 protease-coupled fluorescence (AMC) inhibition assay; assay type: biochemical; conditions: hr enzyme, 10-dose, 3-fold dilution from 50 μM (3: from 300 μM); read-out: IC50 against HDAC1
HDAC1, sequence (Q13547 whole entry): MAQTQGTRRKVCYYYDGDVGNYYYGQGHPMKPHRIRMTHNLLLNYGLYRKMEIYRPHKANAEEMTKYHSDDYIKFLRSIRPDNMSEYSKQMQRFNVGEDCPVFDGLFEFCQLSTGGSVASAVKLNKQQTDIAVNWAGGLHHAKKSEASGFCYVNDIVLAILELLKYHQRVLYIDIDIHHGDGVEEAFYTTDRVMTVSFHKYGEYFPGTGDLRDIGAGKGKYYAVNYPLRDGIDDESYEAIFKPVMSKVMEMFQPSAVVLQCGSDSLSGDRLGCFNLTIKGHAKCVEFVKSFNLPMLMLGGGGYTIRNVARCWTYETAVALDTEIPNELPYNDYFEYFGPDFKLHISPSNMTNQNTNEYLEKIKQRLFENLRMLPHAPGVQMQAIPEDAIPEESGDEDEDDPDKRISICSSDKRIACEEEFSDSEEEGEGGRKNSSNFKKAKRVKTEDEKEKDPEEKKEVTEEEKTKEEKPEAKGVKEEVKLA
Text: as §1, §2, §3

[11] = target: HDAC2 (Homo sapiens, UniProt Q92769); test: HDAC2 protease-coupled fluorescence (AMC) inhibition assay; assay type: biochemical; conditions: hr enzyme, 10-dose, 3-fold dilution from 50 μM (3: from 300 μM); read-out: IC50 against HDAC2
Text: as §1, §2, §3

[12] = target: HDAC4 (Homo sapiens, UniProt P56524); test: HDAC4 protease-coupled fluorescence (AMC) inhibition assay; assay type: biochemical; conditions: hr enzyme, class IIa substrate Boc-Lys(trifluoroacetyl)-AMC; read-out: IC50 against HDAC4
HDAC4, sequence (P56524 whole entry): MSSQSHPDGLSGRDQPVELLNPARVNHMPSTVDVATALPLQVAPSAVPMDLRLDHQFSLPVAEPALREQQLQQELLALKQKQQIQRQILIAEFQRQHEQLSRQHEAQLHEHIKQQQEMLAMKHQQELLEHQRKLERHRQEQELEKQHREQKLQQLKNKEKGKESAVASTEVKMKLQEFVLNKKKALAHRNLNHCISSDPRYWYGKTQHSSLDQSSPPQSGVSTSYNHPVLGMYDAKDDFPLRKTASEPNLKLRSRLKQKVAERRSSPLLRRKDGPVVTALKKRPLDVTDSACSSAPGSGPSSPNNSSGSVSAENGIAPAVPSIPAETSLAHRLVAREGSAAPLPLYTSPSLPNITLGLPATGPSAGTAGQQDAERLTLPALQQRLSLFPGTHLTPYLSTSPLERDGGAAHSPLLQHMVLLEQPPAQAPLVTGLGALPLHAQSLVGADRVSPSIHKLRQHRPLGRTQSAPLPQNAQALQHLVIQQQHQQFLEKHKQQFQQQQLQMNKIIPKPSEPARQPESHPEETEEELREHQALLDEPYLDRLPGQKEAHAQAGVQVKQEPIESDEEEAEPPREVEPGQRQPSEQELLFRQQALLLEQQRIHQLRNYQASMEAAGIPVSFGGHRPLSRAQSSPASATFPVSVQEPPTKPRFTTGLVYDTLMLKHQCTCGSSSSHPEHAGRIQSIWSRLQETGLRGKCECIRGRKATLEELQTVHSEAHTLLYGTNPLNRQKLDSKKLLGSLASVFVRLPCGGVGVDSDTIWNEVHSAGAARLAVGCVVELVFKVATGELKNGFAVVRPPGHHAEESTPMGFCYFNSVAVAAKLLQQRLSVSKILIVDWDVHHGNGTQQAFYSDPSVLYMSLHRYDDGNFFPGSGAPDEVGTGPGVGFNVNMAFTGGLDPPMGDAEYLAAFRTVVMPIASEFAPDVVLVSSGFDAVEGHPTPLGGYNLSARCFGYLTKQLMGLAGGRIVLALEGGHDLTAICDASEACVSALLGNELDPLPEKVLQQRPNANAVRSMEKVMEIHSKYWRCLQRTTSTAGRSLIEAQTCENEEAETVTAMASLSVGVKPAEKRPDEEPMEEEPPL
Text: as §1, §2, §3

[13] = target: HDAC7 (Homo sapiens, UniProt Q8WUI4); test: HDAC7 protease-coupled fluorescence (AMC) inhibition assay; assay type: biochemical; conditions: hr enzyme, class IIa substrate; read-out: IC50 against HDAC7
Description: as §1, §3

[14] = target: HDAC11 (Homo sapiens, UniProt Q96DB2); test: HDAC11 protease-coupled fluorescence (AMC) inhibition assay; assay type: biochemical; conditions: hr enzyme; read-out: IC50 against HDAC11
HDAC11, sequence (Q96DB2 whole entry): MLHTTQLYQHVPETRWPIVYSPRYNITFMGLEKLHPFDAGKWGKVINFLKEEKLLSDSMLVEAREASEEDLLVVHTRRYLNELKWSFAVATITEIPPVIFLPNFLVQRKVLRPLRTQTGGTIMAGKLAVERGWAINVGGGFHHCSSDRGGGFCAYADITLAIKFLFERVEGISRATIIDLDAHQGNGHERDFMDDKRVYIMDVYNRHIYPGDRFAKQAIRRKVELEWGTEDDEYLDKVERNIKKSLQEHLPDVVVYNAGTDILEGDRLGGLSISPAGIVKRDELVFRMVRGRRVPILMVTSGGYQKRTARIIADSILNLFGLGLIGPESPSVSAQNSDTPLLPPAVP
Description: as §1, §3

[15] = tested on: T. cruzi amastigotes and trypomastigotes; test: T. cruzi infection assay in L929 cells (beta-galactosidase Tulahuen strain); assay type: cell-based, Trypanosoma cruzi; conditions: infected L929 cells, 96 h; for EC50, growth of T. cruzi amastigotes and trypomastigotes: mean ± SD
[16] = Trypanosoma cruzi, read-out: percentage of T. cruzi growth inhibition
[17] = Trypanosoma cruzi, toxic = L929 death, read-out: percentage of T. cruzi growth inhibition

| Structure (SMILES) | HCA outcome against intramacrophagic L. amazonensis amastigotes [1] | IC50 [2] [µM] | IC50 [3] [µM] | IC50 [4] [µM] | IC50 [5] [µM] | inhibition at 0.8 µM [6] [%] | inhibition at 4 µM [6] [%] | inhibition at 20 µM [6] [%] | percentage of NTS activity, 72 h ([7]; 10 μM) [%] | percentage of NTS activity, 72 h ([7]; 20 μM) | IC50 [7] [µM] | inhibition at 0.8 µM [8] [%] | inhibition at 4 µM [8] [%] | inhibition at 20 µM [8] [%] | IC50 [9] [µM] | IC50 [10] [µM] | IC50 [11] [µM] | IC50 [12] [µM] | IC50 [13] [µM] | IC50 [14] [µM] | other results |
| --- | --- | --- | --- | --- | --- | --- | --- | --- | --- | --- | --- | --- | --- | --- | --- | --- | --- | --- | --- | --- | --- |
| CN(C)Cc1ccc(S(=O)(=O)n2ccc3cc(/C=C/C(=O)NO)ccc32)cc1 [Compound 6, 3-(1-((4-((Dimethylamino)methyl)phenyl)sulfonyl)-1H-indol-5-yl)-N-hydroxy Acrylamide] | toxic | 0.38 | 2.87 | 31.1 | 0.018 | 39.9 ± 2.1 | 0.1 ± 0.8 | 39.6 ± 5.5 | 20.9 ± 0.9 | 22.8 ± 1.0% | > 20 | 7.9 ± 7.5 | 6.9 ± 8.7 | 8.6 ± 1.3 | 3.43 | 2.07 | 3.49 | 16.7 | > 50 | 4.87 | fold more potent against HDAC5 than against HDAC4 ([9]; ratio of IC50 HDAC4 / HDAC5): 5 fold; percentage of T. cruzi growth inhibition ([15]; 10 μM, toxic = L929 death): toxic; percentage of T. cruzi growth inhibition ([15]; 20 μM, toxic = L929 death): toxic; percentage of T. cruzi growth inhibition ([15]; 40 μM, toxic = L929 death): toxic; percentage of T. cruzi growth inhibition ([15]; 80 μM, toxic = L929 death): toxic; percentage of T. cruzi growth inhibition ([15]; 160 μM, toxic = L929 death): toxic; inhibition at 1.25 µM [15, 16]: 0%; inhibition at 2.5 µM [15, 17]: 0%; inhibition at 5 µM [15, 17]: 3%; EC50, growth of T. cruzi amastigotes and trypomastigotes [15]: inactive |
| O=C(/C=C/c1ccc(CSc2nc(Cl)cc(-c3ccccc3)n2)cc1)NO [Compound 2, 3-(4-(((4-Chloro-6-phenylpyrimidin-2-yl)thio)methyl)phenyl)-N-hydroxy Acrylamide] | toxic | 0.53 | 2.8 | > 50 | 0.12 | 16.4 ± 18.6 | 7.8 ± 1.1 | 60.2 ± 1.4 | 39.7 ± 0.9 | 70% and 67.31 ± 2.9% | 12.9 | 1.1 ± 2 | 2.5 ± 1.4 | 74.8 ± 2.5 | 22.9 | 1.68 | 4.11 | 17.3 | > 50 | 2.31 | percentage of T. cruzi growth inhibition ([15]; 40 μM, toxic = L929 death): toxic; percentage of T. cruzi growth inhibition ([15]; 80 μM, toxic = L929 death): toxic; percentage of T. cruzi growth inhibition ([15]; 160 μM, toxic = L929 death): toxic; inhibition at 1.25 µM [15, 16]: 0%; inhibition at 2.5 µM [15, 17]: 0%; inhibition at 5 µM [15, 17]: 0%; inhibition at 10 µM ([15]; Trypanosoma cruzi, 10 μM, toxic = L929 death, read-out: percentage of T. cruzi growth inhibition): 0%; inhibition at 20 µM ([15]; Trypanosoma cruzi, 20 μM, toxic = L929 death, read-out: percentage of T. cruzi growth inhibition): 3%; EC50, growth of T. cruzi amastigotes and trypomastigotes [15]: inactive |
